# Test results reported in PubChem BioAssay AID1417 (Emory University Molecular Libraries Screening Center, 2008).
# Target: Induced myeloid leukemia cell differentiation protein Mcl-1 (Homo sapiens) (UniProt Q07820)
# Test: Mcl-1/Noxa binding inhibitor potency, dose response, biochemical, TR-FRET (AID 1417)
# Conditions: Mcl-1/Noxa peptide interaction, cell-free TR-FRET (terbium/rhodamine), 2 h; measured here: absolute IC50
# Chain of Induced myeloid leukemia cell differentiation protein Mcl-1 (Homo sapiens) (Q07820 whole entry, looked up): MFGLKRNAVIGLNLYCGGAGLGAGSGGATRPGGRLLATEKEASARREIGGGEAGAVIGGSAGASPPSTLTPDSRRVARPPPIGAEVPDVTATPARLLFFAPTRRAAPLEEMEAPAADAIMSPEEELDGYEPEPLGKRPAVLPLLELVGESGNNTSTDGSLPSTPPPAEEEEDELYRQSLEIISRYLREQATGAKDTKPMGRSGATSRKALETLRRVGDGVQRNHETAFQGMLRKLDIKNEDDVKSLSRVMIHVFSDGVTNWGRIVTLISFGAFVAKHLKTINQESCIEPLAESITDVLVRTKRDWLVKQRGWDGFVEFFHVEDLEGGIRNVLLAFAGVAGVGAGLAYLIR
row,IC50 [µM],Compound
1,3.33,O=C(O)c1ccc(-n2cccc2/C=C2/NC(=O)N(c3ccccc3)C2=O)cc1
2,2.24,Cn1c(SCC(=O)Nc2ccc3nc(SCC(=O)N4CCCC4)sc3c2)nnc1-c1ccccc1
3,< 0.4,Cc1cccc2c1c1ccc3c(c1n2C)C(=O)C=CC3=O
4,< 0.4,CN(C)c1ccc(N=c2sc3ccccc3n2C)cc1
5,4.8,O=c1oc2ccccc2c(O)c1/C=C1\C=Nc2ccccc21
6,0.76,Cc1[nH]c2ccccc2c1/C=N/Nc1ccc([N+](=O)[O-])cc1
7,> 54,CCN(c1ccc(NC(=O)COC(=O)c2ccc(C)c(S(=O)(=O)N3CCOCC3)c2)cc1)C(C)C
8,> 54,CC(=O)c1sc2nc(-c3cccs3)ccc2c1N
9,< 0.4,Nc1cccc(C2=Nc3cccc4cccc(c34)N2)c1
10,> 54,CC(C(=O)Nc1cc([N+](=O)[O-])ccc1Cl)N1CCN(c2ccc(O)cc2)CC1 (stereo not given)
11,7.16,Nc1ccc(-c2nc3cc([N+](=O)[O-])ccc3o2)cc1
12,< 0.4,Cc1ccc(S(=O)(=O)/N=C2/C=C(Sc3ncn[nH]3)C(=O)c3ccccc32)cc1
13,> 54,CN(C)c1ccc(C(CNC(=O)c2ccc(F)cc2)c2c[nH]c3ccccc23)cc1 (stereo not given)
14,> 54,O=C(O)CCN1C(=O)/C(=C/c2cn(-c3ccccc3)nc2-c2cccs2)SC1=S
15,1.01,O=C(NN1C(=O)/C(=C/C=C/c2ccco2)SC1=S)c1ccccc1O
16,2.48,COc1ccccc1NC1=C(NC(C)=O)C(=O)c2ccccc2C1=O

# Second part, the compound before the results:
row,Compound,IC50 [µM]
1,CCN(CC)S(=O)(=O)c1cc(NC(=O)Cn2ncc(Cl)c(Cl)c2=O)ccc1C,3.26
2,CCNc1ccc(Br)cc(C(=O)/C=C/c2ccc3c(c2)OCO3)c1=O,0.499
3,CC(C)(C)C1CCc2c(C(=O)NNC(=O)CCC(=O)O)csc2C1 (stereo not given),> 54
4,CCCSC1=N/C(=C\c2ccc([N+](=O)[O-])o2)C(=O)S1,3.01
5,COc1cc(NCCC(=O)c2cccs2)c(OC)cc1Cl,> 54
6,Cc1ccc(-n2c(=O)c3cc4c(=O)n(-c5ccc(C)c(C)c5)c(=O)c4c(C(=O)c4ccc(C(=O)O)cc4)c3c2=O)cc1C,4.28
7,O=C(O)CCc1nc(-c2cccs2)no1,> 54
8,N=C1CCC(=N)c2c1c(O)c1ccccc1c2O,> 54
9,C=CCSC1=N/C(=C\C=C\c2ccco2)C(=O)S1,5.07
10,NC(=O)c1nn(CC(=O)Nc2ccc3c(c2)OCO3)cc1[N+](=O)[O-],> 54
11,CCOC(=O)c1sc2nc3c(SCC(=O)O)cc(C(=O)c4cc(F)ccc4O)cn3c(=O)c2c1C,2.26
12,O=C(CCN1CCN(c2ccccc2)CC1)N/N=C/c1ccc(O)c(O)c1O,< 0.4
13,CC1CCCCC1NC(=O)c1ccc2c(c1)[nH]c(=O)n2C1CCCC1 (stereo not given),> 54
14,O=C(O)CCCN1C(=O)/C(=C/C=C/c2ccco2)SC1=S,> 54
